# Measurements published in US8609667B2, “E-type phenyl acrylic ester compounds containing substituted anilino pyrimidine group and uses thereof” (Sinochem Corporation, priority 2009, dated 2013).
# Like-named read-outs stand apart in the source and are kept apart here.
# Legend:
# Format in all cases: in vivo
# [1] = tested on: adults of Tetranychus cinnabarinus; assay: Acaricidal activity against adults in greenhouse (spray on broadbean shoots, mortality after 72 hrs); conditions: for control against adults of Tetranychus cinnabarinus: spray, 72 hrs; for mortality at 0.625 µg/mL / mortality at 1.25 µg/mL / mortality at 2.5 µg/mL / mortality at 5 µg/mL / mortality at 10 µg/mL / mortality at 40 µg/mL: Tetranychus cinnabarinus, read-out: mortalities of adults of Tetranychus cinnabarinus (%)
# Procedure: (§1) The activity determinations of compounds of the present invention against adults, nymphs and eggs of Tetranychus cinnabarinus were carried out in greenhouse by the following procedures:
# The activity determination against adults in greenhouse: the compounds were weighed and dissolved in acetone to obtain mother liquid, and then the mother liquid was diluted to required concentration with placed running water containing 0.1% of Tween 80. Broadbean shoots with two true leaves were used to inoculate adults of Tetranychus cinnabarinus which were counted, spraying treatment was performed by portable sprayer (DeVilbiss Atomizer M163), 3 replicates were set for each treatment. After treatment the broadbean shoots were maintained in standard observation room. Scores were conducted and mortalities were calculated after 72 hrs.
# [2] = tested on: nymphs of Tetranychus cinnabarinus; assay: Acaricidal activity against nymphs in greenhouse (spray, mortality after 72 hrs)
# Procedure: as §1
# The activity determination against nymphs in greenhouse: broadbean shoots with two true leaves in pot were taken, ten healthy female adults of Tetranychus cinnabarinus were inoculated to the leaves, the adults were removed after 24 hrs and the eggs were cultivated into nymphs after 7-10 days. The nymphs were counted and then sprayed. 3 replicates were set for each treatment. And then were maintained in standard observation room. Scores were conducted and mortalities were calculated after 72 hrs.
# [3] = tested on: eggs of Tetranychus cinnabarinus; assay: Activity against eggs in greenhouse (hatching inhibition rate); conditions: for hatching inhibition rate against eggs of Tetranychus cinnabarinus: dose 10 mg/L; for inhibition at 0.625 µg/mL / inhibition at 2.5 µg/mL / inhibition at 10 µg/mL: Tetranychus cinnabarinus, read-out: hatching inhibition rate against eggs (%)
# Procedure: as §1
# The activity determination against eggs in greenhouse: Broadbean shoots in pot with one true leaf retained were taken, ten healthy female adults of Tetranychus cinnabarinus were inoculated to the leaves, the adults were removed after 24 hrs and the eggs were counted and then sprayed. The treatment of test compounds and spaying method were the same as that of the activity determination in greenhouse against adults. Once eggs of blank control were all hatched after 5 days, unhatched eggs in each treatment were investigated and the hatching inhibition rate were calculated.
# [4] = tested on: citrus red mite; assay: Field trial against citrus red mite (Guilin, China); conditions: 48 mg/L (24% SC)
# Procedure: Field Trial Against Citrus Red Mite (Guilin, China)
# The trial was carried out in a 2-year-old Shatang orange orchard in Chaotian town lingchuan county guilin city, trifoliate orange trees were selected as stocks, the intervals between two plants was 1.5×2.5 m, the average height was 1.45 m and the crown width was 1.30 m. Two trees were selected in each plot, with random arrangement and 4 replications. Compound 9 (15% SC) was set at two different doses (100 mg/L and 25 mg/L), and spirodiclofen (24% SC) was set at one dose (48 mg/L). Matabi Supergreen 16 Knapsack Sprayer 16 Liter was used to spray evenly with 2 L of spaying volume for each plant. The plants were treated once on 30 Oct. 2009, at that time, adults, nymphs and eggs of citrus red mite all existed, with adults/eggs=1/1.27. During the day the plants were treated, and the weather was good with the average temperature at 23° C. The first three days after treatment were all clear days. The number of mites was investigated before treatment and on the 1st, 3rd, 10th, 15th, 20th and 30th day after treatment respectively. Two trees of each plot were investigated according to the five directions of the tree crown (east, south, west, north and central), 5 leaves in each direction were investigated to calculate the number of living mites, with 50 leaves each plot. The decline rate of mite population and corrected efficacy were calculated according to formulas below: The decline rate of mite population(%)=[(the average number of mite on each leaf before treatment−the average number of mite on each leaf after treatment)/the average number of mite on each leaf before treatment]×100. Corrected efficacy(%)=[(the decline rate of mite population in treated area−the decline rate of mite population in untreated area)/(100−the decline rate of mite population in untreated area)]×100.
structure (smiles),measurement,setting,value
CO/C=C(/C(=O)OC)c1ccccc1COc1cc(C(F)(F)F)nc(Nc2ccccc2F)n1 [Compound 2],control against adults of Tetranychus cinnabarinus,[1]; dose 10 mg/L,100%
same,control against adults of Tetranychus cinnabarinus,[1]; dose 40 mg/L,100%
same,control against adults of Tetranychus cinnabarinus,[1]; dose 100 mg/L,100%
CO/C=C(/C(=O)OC)c1ccccc1COc1cc(C(F)(F)F)nc(Nc2cccc(C)c2)n1 [Compound 6],control against adults of Tetranychus cinnabarinus,[1]; dose 40 mg/L,100%
same,control against adults of Tetranychus cinnabarinus,[1]; dose 100 mg/L,100%
CO/C=C(/C(=O)OC)c1ccccc1COc1cc(C(F)(F)F)nc(Nc2ccc(F)cc2F)n1 [Compound 8],control against nymphs of Tetranychus cinnabarinus,[2]; dose 0.63 mg/L,more than 75%
same,control against nymphs of Tetranychus cinnabarinus,[2]; dose 2.5 mg/L,more than 95%
same,hatching inhibition rate against eggs (%),"[3]; 0.625 mg/L, Table 8",25%
same,hatching inhibition rate against eggs (%),"[3]; 2.5 mg/L, Table 8",90%
same,hatching inhibition rate against eggs (%),"[3]; 10 mg/L, Table 8",100%
same,hatching inhibition rate against eggs of Tetranychus cinnabarinus,[3],100%
same,control against adults of Tetranychus cinnabarinus,[1]; dose 5 mg/L,100%
same,control against adults of Tetranychus cinnabarinus,[1]; dose 10 mg/L,100%
same,control against adults of Tetranychus cinnabarinus,[1]; dose 40 mg/L,100%
same,control against adults of Tetranychus cinnabarinus,[1]; dose 100 mg/L,100%
CO/C=C(/C(=O)OC)c1ccccc1COc1cc(C(F)(F)F)nc(Nc2ccc(Cl)cc2F)n1 [Compound 12],control against adults of Tetranychus cinnabarinus,[1]; dose 5 mg/L,100%
same,control against adults of Tetranychus cinnabarinus,[1]; dose 10 mg/L,100%
same,control against adults of Tetranychus cinnabarinus,[1]; dose 40 mg/L,100%
same,control against adults of Tetranychus cinnabarinus,[1]; dose 100 mg/L,100%
CO/C=C(/C(=O)OC)c1ccccc1COc1cc(C(F)(F)F)nc(Nc2ccc(F)c(Cl)c2)n1 [Compound 13],control against adults of Tetranychus cinnabarinus,[1]; dose 100 mg/L,100%
CO/C=C(/C(=O)OC)c1ccccc1COc1cc(C(F)(F)F)nc(Nc2ccc(F)c(F)c2F)n1 [Compound 15],control against nymphs of Tetranychus cinnabarinus,[2]; dose 0.63 mg/L,100%
same,control against nymphs of Tetranychus cinnabarinus,[2]; dose 2.5 mg/L,100%
same,hatching inhibition rate against eggs of Tetranychus cinnabarinus,[3],100%
same,control against adults of Tetranychus cinnabarinus,[1]; dose 0.31 mg/L,more than 75%
same,control against adults of Tetranychus cinnabarinus,[1]; dose 0.625 mg/L,95%
same,control against adults of Tetranychus cinnabarinus,[1]; dose 5 mg/L,100%
same,control against adults of Tetranychus cinnabarinus,[1]; dose 10 mg/L,100%
same,control against adults of Tetranychus cinnabarinus,[1]; dose 40 mg/L,100%
same,control against adults of Tetranychus cinnabarinus,[1]; dose 100 mg/L,100%
CO/C=C(/C(=O)OC)c1ccccc1COc1cc(C(F)(F)F)nc(Nc2ccc(Cl)c(Cl)c2Cl)n1 [Compound 16],hatching inhibition rate against eggs of Tetranychus cinnabarinus,[3],100%
same,control against adults of Tetranychus cinnabarinus,[1]; dose 5 mg/L,100%
same,control against adults of Tetranychus cinnabarinus,[1]; dose 10 mg/L,100%
same,control against adults of Tetranychus cinnabarinus,[1]; dose 40 mg/L,100%
same,control against adults of Tetranychus cinnabarinus,[1]; dose 100 mg/L,100%
CO/C=C(/C(=O)OC)c1ccccc1COc1cc(C(F)(F)F)nc(Nc2ccc(Cl)c(C)c2Cl)n1 [Compound 17],control against adults of Tetranychus cinnabarinus,[1]; dose 5 mg/L,100%
same,control against adults of Tetranychus cinnabarinus,[1]; dose 10 mg/L,100%
same,control against adults of Tetranychus cinnabarinus,[1]; dose 40 mg/L,100%
same,control against adults of Tetranychus cinnabarinus,[1]; dose 100 mg/L,100%
CO/C=C(/C(=O)OC)c1ccccc1COc1cc(C(F)(F)F)nc(Nc2cc(Cl)ccc2Cl)n1 [Compound 18],control against adults of Tetranychus cinnabarinus,[1]; dose 40 mg/L,100%
same,control against adults of Tetranychus cinnabarinus,[1]; dose 100 mg/L,100%
CO/C=C(/C(=O)OC)c1ccccc1COc1nc(Nc2ccc(F)cc2F)nc(C(F)(F)F)c1C [Compound 79],control against adults of Tetranychus cinnabarinus,[1]; dose 10 mg/L,100%
same,control against adults of Tetranychus cinnabarinus,[1]; dose 40 mg/L,100%
same,control against adults of Tetranychus cinnabarinus,[1]; dose 100 mg/L,100%
CO/C=C(/C(=O)OC)c1ccccc1COc1nc(Nc2ccc(F)c(F)c2F)nc(C(F)(F)F)c1C [Compound 80],control against adults of Tetranychus cinnabarinus,[1]; dose 40 mg/L,100%
same,control against adults of Tetranychus cinnabarinus,[1]; dose 100 mg/L,100%
CO/C=C(/C(=O)OC)c1ccccc1COc1nc(Nc2ccccc2Cl)nc(C(F)(F)F)c1C [Compound 82],control against adults of Tetranychus cinnabarinus,[1]; dose 100 mg/L,100%
CO/C=C(/C(=O)OC)c1ccccc1COc1nc(Nc2ccc(Cl)cc2)nc(C(F)(F)F)c1C [Compound 83],control against adults of Tetranychus cinnabarinus,[1]; dose 100 mg/L,100%
CO/C=C(/C(=O)OC)c1ccccc1COc1nc(Nc2ccccc2)nc(C(F)(F)F)c1C [Compound 84],control against adults of Tetranychus cinnabarinus,[1]; dose 100 mg/L,100%
CO/C=C(/C(=O)OC)c1ccccc1COc1nc(Nc2ccccc2)nc(C(F)(F)F)c1Cl [Compound 85],control against adults of Tetranychus cinnabarinus,[1]; dose 100 mg/L,100%
"CO/C=C(/C(=O)OC)c1ccccc1COc1cc(C(F)(F)F)nc(Nc2ccccc2)n1 [Contrast A, reference compound]",inhibition at 0.625 µg/mL,"[3]; 0.625 mg/L, Table 8",0%
same,inhibition at 2.5 µg/mL,"[3]; 2.5 mg/L, Table 8",10%
same,inhibition at 10 µg/mL,"[3]; 10 mg/L, Table 8",100%
same,mortality at 0.625 µg/mL,"[1]; 0.625 mg/L, Table 7",0%
same,mortality at 1.25 µg/mL,"[1]; 1.25 mg/L, Table 7",10%
same,mortality at 2.5 µg/mL,"[1]; 2.5 mg/L, Table 7",30%
same,mortality at 5 µg/mL,"[1]; 5 mg/L, Table 7",60%
same,mortality at 10 µg/mL,"[1]; 10 mg/L, Table 7",90%
same,mortality at 40 µg/mL,"[1]; 40 mg/L, Table 7",100%
"CO/C=C(/C(=O)OC)c1ccccc1COc1cc(C(F)(F)F)nc(N(C)C)n1 [Contrast B, reference compound]",mortality at 10 µg/mL,"[1]; 10 mg/L, Table 7",0%
same,mortality at 40 µg/mL,"[1]; 40 mg/L, Table 7",0%
CO/C=C(/C(=O)OC)c1ccccc1COc1cc(C(F)(F)F)nc(Nc2cccc(Cl)c2Cl)n1 [Contrast C],inhibition at 0.625 µg/mL,"[3]; 0.625 mg/L, Table 8",0%
same,inhibition at 2.5 µg/mL,"[3]; 2.5 mg/L, Table 8",10%
same,inhibition at 10 µg/mL,"[3]; 10 mg/L, Table 8",100%
"CO/C=C(/C(=O)OC)c1ccccc1COc1cc(C(F)(F)F)nc(OC(C)C)n1 [Fluacrypyrim, reference compound]",inhibition at 0.625 µg/mL,[3],0%
same,inhibition at 2.5 µg/mL,[3],10%
same,inhibition at 10 µg/mL,[3],95%
same,mortality at 0.625 µg/mL,[1],0%
same,mortality at 1.25 µg/mL,[1],30%
same,mortality at 2.5 µg/mL,[1],65%
same,mortality at 5 µg/mL,[1],95%
same,mortality at 10 µg/mL,[1],100%
same,mortality at 40 µg/mL,[1],100%
"CCC(C)(C)C(=O)OC1=C(c2ccc(Cl)cc2Cl)C(=O)OC12CCCCC2 [Spirodiclofen, reference compound]",hatching inhibition rate against eggs (%),"[3]; 0.625 mg/L, Table 8",0%
same,hatching inhibition rate against eggs (%),"[3]; 2.5 mg/L, Table 8",70%
same,hatching inhibition rate against eggs (%),"[3]; 10 mg/L, Table 8",100%
same,Corrected efficacy (%),[4]; the 1st day after treatment,59%
same,Corrected efficacy (%),[4]; the 3rd day after treatment,72%
same,Corrected efficacy (%),[4]; the 10th day after treatment,75%
same,Corrected efficacy (%),[4]; the 15th day after treatment,76%
same,Corrected efficacy (%),[4]; the 20th day after treatment,83%
same,Corrected efficacy (%),[4]; the 30th day after treatment,82%
